From patent US20200245620A1 (priority 2018, published 2020)
Values after ≈ are worked out from the molar mass of the structure shown. Values joined by “and” are separate entries in the source; they are usually repeats but may differ in a detail not shown here. Equal values may be shown once. Read-outs that look alike come from different tables or passages of the source.

Legend:
wheat scab = assay type: in vivo
sheath blight of wheat = assay: Field efficacy on wheat diseases; assay type: in vivo; settings: 40 g a.i./Mu
Procedure: (§1) The field prevention and control efficacy of the fungicidal composition preparations of embodiments 1-8 on wheat diseases was experimented. The experimental field was arranged in Jiangsu Yancheng Xinyang Farm. The wheat variety was Huaimai 33. At the initial stage of wheat blooming, a Nongjiale 16L knapsack electric sprayer was adopted to carry out application for the first time, application was carried out for the second time after five days, water consumption was 50 kg/Mu, the area of each plot was 50 square meters, each treatment was repeated for three times, and the fungicidal composition was not applied on the blank control. Meanwhile, 80 g of carbendazim wettable powder which was 50 percent was used as a control agent for treatment per mu. According to a corresponding method specified by the industrial standard of Guidelines for the Field Efficacy Trials of Fungicides issued by the Ministry of Agriculture, the occurrences of powdery mildew, rust, sheath blight and leaf blight of wheat were investigated at the stage of milky ripeness, disease indexes and prevention and control effects were calculated, and the result is shown in table 7.

powdery mildew of wheat = assay: Field efficacy on wheat diseases; assay type: in vivo; settings: 40 g a.i./Mu
Procedure: as §1

leaf blight of wheat = assay: Field efficacy on wheat diseases; assay type: in vivo; settings: 40 g a.i./Mu
Procedure: as §1

Fusarium graminearum = assay: microbe, parasite or virus in culture; assay type: cell-based; settings: for EC50: F.g sensitive strains
rust of wheat = settings: in vivo
wheat scab fungi = assay type: in vivo
Fusarium asiaticum = assay: microbe, parasite or virus in culture; assay type: cell-based
[1] = test system: barley scab (fusarium head blight); assay type: in vivo
barley leaf blight = assay: Field efficacy on barley diseases; assay type: in vivo
Procedure: (§2) The field prevention and control efficacy of the fungicidal composition preparations of embodiments 1-8 on barley diseases was experimented, wherein different doses of single jinggangmycin agent and single ipconazole agent were designed for treatment. In 2014, application was carried out for the first time at the initial stage of barley blooming, application was carried out for the second time after five days, water consumption was 50 kg/Mu, the area of each plot was 50 square meters, each treatment was repeated for three times, and the fungicidal composition was not applied on the blank control. A conventional agent, polyketone wettable powder, was adopted as a control agent. According to a corresponding method specified by the industrial standard of Guidelines for the Field Efficacy Trials of Fungicides issued by the Ministry of Agriculture, the occurrences of barley scab, powdery mildew, rust and leaf blight were investigated at the stage of milky ripeness, disease indexes and prevention and control effects were calculated, and the result is shown in table 8. One hundred and fifty barley ears were sampled randomly every five treated points at the stage of wax ripeness, taken in for threshing and assayed according to the method of application embodiment 1, and toxin contents of the kernels were calculated.

barley powdery mildew = assay: Field efficacy on barley diseases; assay type: in vivo
Procedure: as §2

[2] = test system: barley scab (fusarium head blight); assay type: in vivo; remark: listed apart in the source
[3] = test system: Carbendazim-resistant fusarium asiaticum; assay: microbe, parasite or virus in culture; assay type: cell-based; settings: for inhibition at 1 µg/mL / inhibition at 10 µg/mL / inhibition at 100 µg/mL / inhibition at 1000 µg/mL / inhibition at 10000 µg/mL: Fusarium asiaticum, read-out: DON Biosynthesis Inhibition Rate
barley rust = settings: in vivo
Tri5 gene = assay type: cell-based, fusarium asiaticum
[4] = Fusarium asiaticum, read-out: Growth Inhibition Rate

COC(=O)Nc1nc2ccccc2[nH]1 [Carbendazim, carbendazim]
Disease Index Prevention Effect, Actual Prevention Effect (wheat scab; 40 g a.i./Mu): 67.5%
Disease Index Prevention Effect, Sheath Blight (sheath blight of wheat): 44.65%
Disease Index Prevention Effect, Powdery Mildew (powdery mildew of wheat): 52.62%
Disease Index Prevention Effect, Leaf Blight (leaf blight of wheat): 48.53%
EC50 (Fusarium graminearum; Fusarium graminearum): 0.45 µg/mL (≈ 2.35 µM)
Disease Index Prevention Effect, Rust (rust of wheat): 61.24%
DON Contamination Reduction Rate (wheat scab fungi; 40 g a.i./Mu): 58.42%
Grain Toxin Content (wheat scab fungi; 40 g a.i./Mu): 4.42 μg of toxin/g of kernels
EC50 (Fusarium asiaticum; Fusarium asiaticum): 0.45 µg/mL (≈ 2.35 µM)

CC(C)C1CCC(Cc2ccc(Cl)cc2)C1(O)Cn1cncn1 (stereo not shown) [Ipconazole]
Disease Index Prevention Effect, Actual Prevention Effect (wheat scab; ipconazole 4 g a.i./Mu): 42.65%
Disease Index Prevention Effect, Actual Prevention Effect (wheat scab; ipconazole 6 g a.i./Mu): 53.45%
Disease Index Prevention Effect, Actual Prevention Effect (wheat scab; ipconazole 8 g a.i./Mu): 67.58%
Disease Index Prevention Effect, Actual Prevention Effect (wheat scab; ipconazole 10 g a.i./Mu): 72.41%
Disease Index Prevention Effect, Actual Prevention Effect (wheat scab; ipconazole 16 g a.i./Mu): 80.33%
EC50 (Fusarium graminearum; Fusarium graminearum): 0.89 µg/mL (≈ 2.67 µM)
inhibition at 0.0125 µg/mL (Fusarium graminearum; Fusarium graminearum, read-out: Growth Inhibition Rate, sensitive strains, 0.0125 μg/mL): 28.9%
inhibition at 0.025 µg/mL (Fusarium graminearum; Fusarium graminearum, read-out: Growth Inhibition Rate, sensitive strains, 0.025 μg/mL): 38.3%
inhibition at 0.05 µg/mL (Fusarium graminearum; Fusarium graminearum, read-out: Growth Inhibition Rate, sensitive strains, 0.05 μg/mL): 40.8%
inhibition at 0.1 µg/mL (Fusarium graminearum; Fusarium graminearum, read-out: Growth Inhibition Rate, sensitive strains, 0.1 μg/mL): > 50%
inhibition at 0.2 µg/mL (Fusarium graminearum; Fusarium graminearum, read-out: Growth Inhibition Rate, sensitive strains, 0.2 μg/mL): 77.1%
Average Fungal Colony Diameter (Fusarium graminearum; sensitive strains, 0.0125 μg/mL): 53.5 mm
Average Fungal Colony Diameter (Fusarium graminearum; sensitive strains, 0.025 μg/mL): 46.4 mm
Average Fungal Colony Diameter (Fusarium graminearum; sensitive strains, 0.05 μg/mL): 44.5 mm
Average Fungal Colony Diameter (Fusarium graminearum; sensitive strains, 0.1 μg/mL): 31.8 mm
Average Fungal Colony Diameter (Fusarium graminearum; sensitive strains, 0.2 μg/mL): 17.2 mm
Grain Toxin Content ([1]; ipconazole 5 g a.i./Mu): 3.54 mg of DON/Kg of kernel
Toxin Reduction Percentage ([1]; ipconazole 5 g a.i./Mu): 58.50%
Grain Toxin Content ([1]; ipconazole 10 g a.i./Mu): 2.57 mg of DON/Kg of kernel
Toxin Reduction Percentage ([1]; ipconazole 10 g a.i./Mu): 69.87%
Disease Index Prevention Effect, Leaf Blight (barley leaf blight; ipconazole 5 g a.i./Mu): 64.29%
Disease Index Prevention Effect, Leaf Blight (barley leaf blight; ipconazole 10 g a.i./Mu): 75.34%
Disease Index Prevention Effect, Powdery Mildew (barley powdery mildew; ipconazole 5 g a.i./Mu): 76.24%
Disease Index Prevention Effect, Powdery Mildew (barley powdery mildew; ipconazole 10 g a.i./Mu): 85.64%
Disease Index Prevention Effect, Fusarium head blight ([2]; ipconazole 5 g a.i./Mu): 43.84%
Disease Index Prevention Effect, Fusarium head blight ([2]; ipconazole 10 g a.i./Mu): 62.41%
DON Biosynthesis Inhibition Rate [3]: 0.36% and 0.31%
Toxin Production Capability [3]: 87.68 μgDON/g by dry weight of hyphae and 52.16 μgDON/g by dry weight of hyphae
inhibitory effects on the toxin biosynthesis capability of the fusaria [3]: does not have significant inhibitory effects
DON Contamination Reduction Rate (wheat scab fungi; ipconazole 4 g a.i./Mu): 49.11%
Grain Toxin Content (wheat scab fungi; ipconazole 4 g a.i./Mu): 5.41 μg of toxin/g of kernels
DON Contamination Reduction Rate (wheat scab fungi; ipconazole 6 g a.i./Mu): 59.08%
Grain Toxin Content (wheat scab fungi; ipconazole 6 g a.i./Mu): 4.35 μg of toxin/g of kernels
DON Contamination Reduction Rate (wheat scab fungi; ipconazole 8 g a.i./Mu): 61.24%
Grain Toxin Content (wheat scab fungi; ipconazole 8 g a.i./Mu): 4.12 μg of toxin/g of kernels
DON Contamination Reduction Rate (wheat scab fungi; ipconazole 10 g a.i./Mu): 63.78%
Grain Toxin Content (wheat scab fungi; ipconazole 10 g a.i./Mu): 3.85 μg of toxin/g of kernels
DON Contamination Reduction Rate (wheat scab fungi; ipconazole 16 g a.i./Mu): 71.50%
Grain Toxin Content (wheat scab fungi; ipconazole 16 g a.i./Mu): 3.03 μg of toxin/g of kernels
inhibition at 0.0125 µg/mL (Fusarium asiaticum; [4]): 29.5%
inhibition at 0.025 µg/mL (Fusarium asiaticum; [4]): 38.6%
inhibition at 0.05 µg/mL (Fusarium asiaticum; [4]): 41.7%
inhibition at 0.1 µg/mL (Fusarium asiaticum; [4]): > 50%
inhibition at 0.2 µg/mL (Fusarium asiaticum; [4]): 76.6%
Disease Index Prevention Effect, Rust (barley rust): 74.25% and 82.65%

OCC1=C[C@H](N[C@H]2C[C@H](CO)[C@@H](O[C@@H]3O[C@H](CO)[C@@H](O)[C@H](O)[C@H]3O)[C@H](O)[C@H]2O)[C@H](O)[C@@H](O)[C@@H]1O [Jinggangmycin]
Disease Index Prevention Effect, Actual Prevention Effect (wheat scab; 2 g a.i./Mu): 0%
Disease Index Prevention Effect, Actual Prevention Effect (wheat scab; jinggangmycin 4 g a.i./Mu): 8.65%
Disease Index Prevention Effect, Actual Prevention Effect (wheat scab; jinggangmycin 8 g a.i./Mu): 10.24%
Disease Index Prevention Effect, Actual Prevention Effect (wheat scab; jinggangmycin 10 g a.i./Mu): 14.31%
Disease Index Prevention Effect, Actual Prevention Effect (wheat scab; jinggangmycin 12 g a.i./Mu): 16.54%
Disease Index Prevention Effect, Actual Prevention Effect (wheat scab; jinggangmycin 16 g a.i./Mu): 18.65%
Rate of Inhibition on Relative Expression Level of Tri5 Gene (Tri5 gene): 66% and 84% and 87% and 90% and 59%
inhibition at 50 µg/mL (Fusarium graminearum; Fusarium graminearum, read-out: Growth Inhibition Rate, sensitive strains, 50 μg/mL): 6.5 to 7.8%
synergistic effect for ipconazole in inhibiting hyphal growth in vitro (Fusarium graminearum; jinggangmycin 0.1-50 μg/mL with ipconazole 0.05 or 0.1 μg/mL): does not have a synergistic effect
Average Fungal Colony Diameter (Fusarium graminearum; sensitive strains, 0.1 μg/mL): 76.3 mm
Average Fungal Colony Diameter (Fusarium graminearum; sensitive strains, 1 μg/mL): 76.2 mm
Average Fungal Colony Diameter (Fusarium graminearum; sensitive strains, 10 μg/mL): 75.4 mm
Average Fungal Colony Diameter (Fusarium graminearum; sensitive strains, 50 μg/mL): 70.3 mm
Growth Inhibition Rate (Fusarium graminearum; sensitive strains, 50 μg/mL): 6.52%
Grain Toxin Content ([1]; jinggangmycin 5 g a.i./Mu): 5.28 mg of DON/Kg of kernel
Toxin Reduction Percentage ([1]; jinggangmycin 5 g a.i./Mu): 38.10%
Grain Toxin Content ([1]; jinggangmycin 10 g a.i./Mu): 4.62 mg of DON/Kg of kernel
Toxin Reduction Percentage ([1]; jinggangmycin 10 g a.i./Mu): 45.84%
Disease Index Prevention Effect, Leaf Blight (barley leaf blight; jinggangmycin 5 g a.i./Mu): 0%
Disease Index Prevention Effect, Leaf Blight (barley leaf blight; jinggangmycin 10 g a.i./Mu): 0%
Disease Index Prevention Effect, Powdery Mildew (barley powdery mildew; jinggangmycin 5 g a.i./Mu): 0%
Disease Index Prevention Effect, Powdery Mildew (barley powdery mildew; jinggangmycin 10 g a.i./Mu): 0%
Disease Index Prevention Effect, Fusarium head blight ([2]; jinggangmycin 5 g a.i./Mu): 4.54%
Disease Index Prevention Effect, Fusarium head blight ([2]; jinggangmycin 10 g a.i./Mu): 12.58%
inhibition at 1 µg/mL ([3]; 168 h): 28.6%
inhibition at 10 µg/mL ([3]; 168 h): 35.5%
inhibition at 100 µg/mL ([3]; 168 h): 45.2%
inhibition at 1000 µg/mL ([3]; 168 h): 65.5%
inhibition at 10000 µg/mL ([3]; 168 h): 75.9%
inhibition at 1 µg/mL ([3]; 336 h): 1.7%
inhibition at 10 µg/mL ([3]; 336 h): 7.87%
inhibition at 100 µg/mL ([3]; 336 h): 29.9%
inhibition at 1000 µg/mL ([3]; 336 h): 57%
inhibition at 10000 µg/mL ([3]; 336 h): 75.4%
DON Contamination Reduction Rate (wheat scab fungi; 2 g a.i./Mu): 16.18%
Grain Toxin Content (wheat scab fungi; 2 g a.i./Mu): 8.91 μg of toxin/g of kernels
DON Contamination Reduction Rate (wheat scab fungi; jinggangmycin 4 g a.i./Mu): 19.00%
Grain Toxin Content (wheat scab fungi; jinggangmycin 4 g a.i./Mu): 8.61 μg of toxin/g of kernels
DON Contamination Reduction Rate (wheat scab fungi; jinggangmycin 8 g a.i./Mu): 37.72%
Grain Toxin Content (wheat scab fungi; jinggangmycin 8 g a.i./Mu): 6.62 μg of toxin/g of kernels
DON Contamination Reduction Rate (wheat scab fungi; jinggangmycin 10 g a.i./Mu): 41.58%
Grain Toxin Content (wheat scab fungi; jinggangmycin 10 g a.i./Mu): 6.21 μg of toxin/g of kernels
DON Contamination Reduction Rate (wheat scab fungi; jinggangmycin 12 g a.i./Mu): 50.99%
Grain Toxin Content (wheat scab fungi; jinggangmycin 12 g a.i./Mu): 5.21 μg of toxin/g of kernels
DON Contamination Reduction Rate (wheat scab fungi; jinggangmycin 16 g a.i./Mu): 54.37%
Grain Toxin Content (wheat scab fungi; jinggangmycin 16 g a.i./Mu): 4.85 μg of toxin/g of kernels
Average Fungal Colony Diameter (Fusarium asiaticum): 75.6 mm and 69.4 mm and 76.3 mm
inhibitory activity on the growth in vitro (Fusarium asiaticum): almost does not have inhibitory activity
synergistic effect for ipconazole in inhibiting hyphal growth in vitro (Fusarium asiaticum): does not have a synergistic effect
inhibition at 50 µg/mL (Fusarium asiaticum; [4]): 6.5 to 7.8%
Disease Index Prevention Effect, Rust (barley rust): 0%

CCOC(=O)C(C#N)=C(N)c1ccccc1 [Phenamacril, phenamacril]
EC50 (Fusarium graminearum): 0.165 µg/mL (≈ 0.763 µM)
